From PubChem BioAssay (NCI) come the findings set out here.

Common to all, as to assay: DTP human tumour cell line panel, 48 h
The subject of test [1] is LOX IMVI melanoma.
For test [2], the system named is SF-268 CNS.
The test system of test [3] is TK-10 renal.
Test [4] has as its system MDA-N.
In test [5] the test system is UACC-257 melanoma.
Test [6] deals with PC-3 prostate.
Test [7] concerns HCC-2998 colon.
Test [8] relates to UACC-62 melanoma.
Test [9] relates to MOLT-4 leukemia.
Test [10] relates to HOP-62 NSCLC.

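In this assay, cells in 96-well plates receive the compound at five concentrations for 48 hours. Endpoints are linearly interpolated between the surrounding concentrations. At the TGI there is no net growth.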

By TGI is commonly meant the concentration giving total growth inhibition. Read a low TGI as greater sensitivity of the cells. Consider `CN1Cc2c(ccc3c2OCO3)[C@@H]2[C@H](O)Cc3cc4c(cc3[C@@H]21)OCO4`, for which the TGI is above 47.3 µM in test [1]; above 26.5 µM in test [2]; above 100 µM in test [3]; 1.46 µM in [4]; above 100 µM in test [5]; above 100 µM in [6]. In addition, the concentration for total growth inhibition (TGI) in test [7] is 4.49 µM; in [8], above 24 µM; in test [9], above 57.1 µM; in test [10] it was 28.1 µM.
Regarding `O=C1c2sccc2C(=O)c2c(CO)csc21`, the concentration for total growth inhibition (TGI) in [1] is 10.6 µM; in [2], 30.7 µM; in test [3], 23 µM; in test [4], 3.16 µM; in test [5] it was 5.24 µM; in [6], above 32.8 µM. In addition, the concentration for total growth inhibition (TGI) is 13.7 µM in [7], 5.67 µM in test [8], above 52.9 µM in test [9] and 25.5 µM in test [10].
For the compound `CNC(=O)N(C)C(=O)c1ccccc1C(=O)N(C)C(=O)NC`, the total growth inhibition concentration (TGI) in test [1], in [2], in test [3], in test [4], in [5] and in [6] was above 10 µM in each case. Moreover, the TGI in [7], in test [8], in test [9] and in test [10] was above 10 µM throughout.
As to `CCOC(=O)c1c(SCCN(CC)CC)n(-c2ccccc2)c(=S)n(-c2ccccc2)c1=O`, the concentration for total growth inhibition (TGI) is 4.03 µM in [1]; 9.9 µM in [2]; 3.39 µM in test [3]; 7 µM in [4]; 5.46 µM in test [5]; 4.1 µM in [6]. Further, the TGI stood at 3.46 µM in test [7], 9.1 µM in test [8], 3.33 µM in test [9] and 32.6 µM in [10].
As for `CC1SCCc2nc3ccccc3n21` (stereo not given), the TGI in [1], in test [2], in test [3], in [4], in test [5] and in test [6] was above 100 µM throughout. The TGI in test [7], in test [8], in test [9] and in test [10] was above 100 µM in each case.
Consider `COc1ccc(-c2cc(=O)c3cc(OC)c(OC)cc3[nH]2)cc1OC`, for which the TGI in test [1], in test [2], in test [3], in test [4], in [5] and in [6] was above 100 µM in each case. The concentration for total growth inhibition (TGI) in [7], in [8], in test [9] and in test [10] was above 100 µM in each case.
Take `CC(C)[C@H](NC(=O)OCc1ccccc1)C(=O)N[C@H](/C=C/C(=O)OC(C)(C)C)CO`: the total growth inhibition concentration (TGI) in [1], in test [2], in test [3], in [4], in test [5] and in test [6] was above 100 µM each time. Further, the TGI in test [7], in [8], in test [9] and in test [10] was above 100 µM each time.
`CCOC(=O)c1sc2nc(SC)nc3c2c1NCN3c1ccccc1Cl`: the concentration for total growth inhibition (TGI) in [1], in test [2], in test [3], in test [4], in test [5] and in test [6] was above 100 µM each time. In addition, the TGI in test [7], in [8], in test [9] and in test [10] was above 100 µM throughout.
As for `O=C(CCc1ccccc1)NCCc1ccc(O)c(O)c1`, the total growth inhibition concentration (TGI) was above 100 µM in test [1]; above 100 µM in test [2]; above 100 µM in test [3]; 28.5 µM in test [4]; above 100 µM in test [5]; above 61.2 µM in test [6]. In addition, the TGI in test [7] is above 100 µM; in test [8] it was above 100 µM; in test [9], above 89.4 µM; in test [10], 97.3 µM.
In the case of `CCCCSC1=N/C(=C\c2ccccc2O)C(Cl)=N1`, the TGI in test [1], in test [2], in test [3], in test [4], in test [5] and in test [6] was above 100 µM throughout. The concentration for total growth inhibition (TGI) in test [7], in test [8], in test [9] and in test [10] was above 100 µM in each case.
In the case of `C/C(=C\CNc1ncnc2c1ncn2CCC#N)CO`, the TGI in [1], in test [2], in test [3], in test [4], in [5] and in test [6] was above 100 µM each time. The total growth inhibition concentration (TGI) in test [7], in test [8], in test [9] and in test [10] was above 100 µM throughout.
